Results on 97 compounds are retold here after PubChem BioAssay AID1919 (The Scripps Research Institute Molecular Screening Center, 2009).

Structures are written as SMILES. Activity calls are given as the source filed them.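 The calls were made as follows: active = IC50 against the VIM-2 bacterial beta-lactamase enzyme at or below a set limit; inactive = IC50 above that set limit.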

The assay addresses VIM-2 metallo-beta-lactamase (Pseudomonas aeruginosa) (UniProt Q932Y6). Briefly: concentration-dependent VIM-2 enzyme inhibition – biochemical, epi-absorbance readout, selective inhibitors, dose response (AID 1919). As to conditions: purified VIM-2, nitrocefin hydrolysis, epi-absorbance fluorescence.
Regarding `Cc1cc(C(=O)OCC(=O)NC(=O)c2cccn2C)c2ccccc2n1`, the IC50 (commonly the concentration that inhibits the measured activity by half) is > 59.6 µM (inactive).

Turning to `Cc1c(C)c2c(OCC(=O)N3CCC[C@H]3C(=O)O)cc3c(c2oc1=O)CCC(C)(C)O3`, the IC50 is 1.73 µM.

For the compound `COc1cccc(-n2c(CNC(=O)OC(C)(C)C)n[nH]c2=S)c1`, the IC50 entry is “inactive”.

Regarding `COCC(C)NC(=O)c1cc2cccc([N+](=O)[O-])c2[nH]1` (configuration not stated), the IC50 entry was “inactive”.

With `Cc1n[nH]c(C)c1CCCCOc1ccc([N+](=O)[O-])cc1`, the IC50 result was “inactive”.

In the case of `Cc1ccc(-c2c(C(=O)O)c(C(=O)O)c3n2CSC3)cc1`, the IC50 is 9.91 µM.

For `O=c1c2ccccc2cnn1Cc1n[nH]c(=S)n1C1CC2CCC1C2` (configuration not stated), the IC50 entry was “inactive”.

For the compound `S=c1[nH]nc(-c2cccs2)n1C1CCCCC1`, the IC50 was 6.69 µM.

With `CCOC(=O)N=S(N)(=O)c1ccccc1` (configuration not stated), the IC50 result was “inactive”.

Consider `S=c1[nH]nc(C2CC2)n1Cc1ccco1`, for which the IC50 is 9.32 µM.

With `CC1=C(C(=O)O)N2C(=O)C(NC(=O)c3nn(C)cc3[N+](=O)[O-])C2SC1` (configuration not stated), the IC50 entry was “inactive”.

As for `O=C(O)CC/C(=C\c1cc([N+](=O)[O-])ccc1Cl)c1nc2ccccc2s1`, the IC50 entry is “inactive”.

As for `CCN(CC)C(=O)CSc1nc2ccc(NC(=O)CSc3nccn3C)cc2s1`, the IC50 result was “inactive”.

Consider `CCc1cc(=O)oc2c(C)c(OCC(=O)N3CCC[C@@H]3C(=O)O)ccc12`, for which the IC50 entry was “inactive”.

As to `O=C(CSc1nnc(NC(=O)C2CC2)s1)NCc1ccccc1Cl`, the IC50 entry is “inactive”.

For the compound `S=c1[nH]nc(-c2cccs2)n1Cc1ccccc1`, the IC50 is 4.09 µM.

`Cc1c(C)c2ccc(OCC(=O)N3CCC[C@@H]3C(=O)O)c(C)c2oc1=O`: the IC50 was 6.07 µM.

For the compound `O=C(CSc1nnc(NC(=O)c2c(F)cccc2F)s1)NCc1ccccc1`, the IC50 is 9.26 µM.

Consider `Cc1cc(=O)oc2c3c(cc(OCC(=O)N4CCC[C@H]4C(=O)O)c12)OC(C)(C)CC3`, for which the IC50 entry was “inactive”.

As for `O=c1[nH]c(SCc2n[nH]c(=S)n2-c2ccccc2)nc2sc3c(c12)CCC3`, the IC50 is > 59.6 µM (inactive).

Regarding `O=C(O)Cn1cccc1C(=O)c1ccccc1`, the IC50 entry is “inactive”.

Regarding `COc1ccc2[nH]c(C(=O)O)c(CCN3C(=O)c4ccc(C(=O)O)cc4C3=O)c2c1`, the IC50 is 1.43 µM.

As to `O=C(O)c1[nH]c2ccc(Cl)cc2c1CCN1C(=O)c2ccccc2C1=O`, the IC50 is 1.29 µM.

Consider `O=C1Nc2cc(C(=O)NCCCN3CCOCC3)ccc2S/C1=C/c1ccccc1F`, for which the IC50 entry is “inactive”.

Regarding `CC(C)Cn1c(-c2ccco2)n[nH]c1=S`, the IC50 entry was “inactive”.

On to `Cc1cccc(C2c3[nH]c4ccccc4c3CCN2C(=O)c2cc(CC(C)C)[nH]c(=O)n2)n1` (configuration not stated), for which the IC50 is 7.93 µM.

As to `CCCn1c(C(C)C)n[nH]c1=S`, the IC50 entry is “inactive”.

`O=C(CCN1C(=O)/C(=C/c2ccccc2F)SC1=S)NCCCn1ccnc1`: the IC50 was 6.45 µM.

For `O=C(O)c1[nH]c2ccc(Br)cc2c1CCN1C(=O)c2cccc([N+](=O)[O-])c2C1=O`, the IC50 was 1.98 µM.

In the case of `Cc1cc(OCc2cc(C(=O)O)oc2C)c2c3c(c(=O)oc2c1)CCCC3`, the IC50 was 1.49 µM.

In the case of `C=C(c1cccc2ccccc12)P(=O)(O)O`, the concentration for half-maximal inhibition (IC50) was 6.81 µM.

As for `CC1CCCC(C)N1C(=O)CSc1nnc(NC(=O)c2cccs2)s1` (configuration not stated), the IC50 entry was “inactive”.

Turning to `CC1CCCCC1n1c(-c2cccnc2)n[nH]c1=S` (configuration not stated), the IC50 result was “inactive”.

As to `O=C(O)C1Sc2[nH]c(=O)sc2C2c3cc(Cl)ccc3OC(=O)C12` (configuration not stated), the IC50 was > 59.6 µM (inactive).

As to `O=[N+]([O-])c1ccc(-c2ccccc2)c([As](=O)(O)O)c1`, the IC50 is 0.748 µM.

With `O=C(O)c1c(C(=O)O)c(-c2ccc(Br)cc2)n2c1CSC2`, the IC50 was 4.78 µM.

As for `CCCc1cc(=O)oc2c3c(cc(OCC(=O)N4CCC[C@H]4C(=O)O)c12)OC(C)(C)CC3`, the IC50 was 6.62 µM.

On to `Cc1cc(C)n(-c2nc(SCC(=O)O)c3c4c(sc3n2)COC(C)(C)C4)n1`, for which the IC50 entry was “inactive”.

Consider `S=c1[nH]nc(-c2ccc3ccccc3n2)n1-c1ccc2c(c1)OCCO2`, for which the IC50 result is “inactive”.

Take `COc1ccccc1-c1n[nH]c(=S)n1Cc1ccco1`: the IC50 result was “inactive”.

Turning to `Fc1ccccc1-c1n[nH]c(=S)n1Cc1ccccc1`, the IC50 result was “inactive”.

With `O=C1Nc2cc(C(=O)N3CCC(N4CCCCC4)CC3)ccc2S/C1=C\c1ccccc1`, the IC50 entry is “inactive”.

On to `O=C(O)c1ccccc1C(=O)c1cccc2ccccc12`, for which the IC50 result is “inactive”.

With `O=C(CSc1nnc(NC(=O)c2cccc(F)c2)s1)NCc1ccco1`, the IC50 is > 59.6 µM (inactive).

For the compound `COc1ccccc1C(=O)Nc1nnc(SCC(=O)NCc2ccco2)s1`, the IC50 is 6.48 µM.

For the compound `S=c1[nH]nc(-c2ccco2)n1Cc1ccccc1`, the IC50 is 6.48 µM.

Regarding `Cn1ccnc1SCC(=O)Nc1ccc2nc(SCC(=O)NC3CC3)sc2c1`, the IC50 entry is “inactive”.

With `O=C(O)c1ccccc1Sc1ncnc2sc3c(c12)CCC3`, the IC50 result was “inactive”.

As for `CCn1c(-c2nn(-c3ccccc3)ccc2=O)n[nH]c1=S`, the IC50 entry was “inactive”.

As for `CC(C)(C)c1ccc(-c2n[nH]c(=S)n2CCCN2CCOCC2)cc1`, the IC50 entry was “inactive”.

Regarding `CCOC(=O)c1[nH]c(C(=O)O)c(CCC(=O)OC)c1C`, the IC50 entry was “inactive”.

As for `CCCCn1c(-c2ccoc2C)n[nH]c1=S`, the IC50 entry was “inactive”.

For `Cc1ccccc1C(=O)Nc1nnc(SCC(=O)NCc2ccco2)s1`, the IC50 is 3.01 µM.

Consider `O=P(O)(O)c1ccccc1OCCCCCOc1ccccc1P(=O)(O)O`, for which the IC50 was 2.4 µM.

Regarding `O=C(CSc1nnc(NC(=O)c2ccccc2F)s1)NCc1ccc(F)cc1`, the IC50 entry was “inactive”.

On to `CC(=O)c1ccc(-c2ccc(Cn3c(C)nc4cc(N)c(C)nc43)cc2)cc1`, for which the IC50 was > 59.6 µM (inactive).

In the case of `O=C(O)C(NC(=O)c1ccccc1)=C(Cl)Cl`, the IC50 entry was “inactive”.

Turning to `COc1ccc(-c2cc(C(F)(F)F)nc(N3CCN(C)CC3)n2)cc1`, the IC50 is > 59.6 µM (inactive).

`O=C(c1ccco1)N1N=C(c2ccc(Cl)cc2)CC1c1ccco1` (configuration not stated): the IC50 is 7.31 µM.

Consider `NC(=O)SCC(=O)Nc1ccccc1C(=O)O`, for which the IC50 entry is “inactive”.

For `Cn1c(-c2sccc2OCc2ccccc2)n[nH]c1=S`, the IC50 was 5.45 µM.

For the compound `CCCC(=O)Nc1nnc(SCC(=O)NCc2cccs2)s1`, the IC50 entry was “inactive”.

With `O=C(CSc1nnc(NC(=O)C2CCCCC2)s1)NCc1ccco1`, the IC50 was 6.64 µM.

Regarding `Cc1cc(OCC(=O)N2CCC[C@@H]2C(=O)O)c2c(C)c(C)c(=O)oc2c1`, the IC50 result was “inactive”.

Regarding `S=c1[nH]nc(C2CC2)n1Cc1ccccc1`, the IC50 was 3.35 µM.

For the compound `COCC(=O)Nc1nnc(SCC(=O)NCc2cccs2)s1`, the IC50 is 9.67 µM.

As for `CCCCn1c(-c2nn(C)c(C)c2Cl)n[nH]c1=S`, the IC50 is 5.37 µM.

With `O=c1[nH]c2c(s1)C(c1cccnc1)C1C3CCC(C3)C1S2` (configuration not stated), the IC50 is 0.0544 µM.

Regarding `COc1ccc(-c2n[nH]c(=S)n2-c2ccc3c(c2)OCCO3)cc1OC`, the IC50 entry was “inactive”.

Turning to `Cc1c(OCC(=O)N2CCC[C@@H]2C(=O)O)ccc2c3c(c(=O)oc12)CCC3`, the IC50 result is “inactive”.

Consider `CC(C)(C)C(=O)Nc1nnc(CSCc2ccccc2F)s1`, for which the IC50 was 4.99 µM.

In the case of `O=C(CSc1nnc(NC(=O)c2cc(Br)ccc2Cl)s1)NCC1CCCO1` (configuration not stated), the IC50 entry is “inactive”.

For the compound `O=P(O)(O)c1ccccc1OCc1ccccc1`, the half-maximal inhibitory concentration (IC50) was 2.44 µM.

For the compound `COc1cc2c(cc1OC)C(C)N(C(=O)c1nccnc1C(=O)O)CC2` (configuration not stated), the IC50 result was “inactive”.

For the compound `C=CCn1c(C2CC2)n[nH]c1=S`, the IC50 entry is “inactive”.

Consider `S=c1[nH]nc(-c2ccccc2)n1CC1CCCO1` (configuration not stated), for which the IC50 entry is “inactive”.

Take `S=c1[nH]nc(-c2ccccc2)n1C1C=CCCC1` (configuration not stated): the IC50 entry is “inactive”.

On to `CC(C)(C)C(=O)Nc1nnc(SCC(=O)NCc2cccs2)s1`, for which the IC50 was 2.62 µM.

As for `CCCCc1cc(=O)oc2c3c(cc(OCC(=O)N4CCC[C@H]4C(=O)O)c12)OC(C)(C)CC3`, the IC50 entry is “inactive”.

Regarding `Cc1c(C)c2c(OCC(=O)N[C@@H](C)C(=O)O)cc3c(c2oc1=O)CCC(C)(C)O3`, the IC50 was 4.44 µM.

As for `Cc1c(Cl)c(-c2n[nH]c(=S)n2-c2ccc(F)cc2)nn1C`, the IC50 entry was “inactive”.

As for `S=c1[nH]nc(-c2ccccc2)n1Cc1ccccc1`, the IC50 entry was “inactive”.

For `COc1ccccc1-n1c(-c2ccco2)n[nH]c1=S`, the IC50 entry is “inactive”.

`CCCCn1c(-c2sccc2C)n[nH]c1=S`: the IC50 is 4.73 µM.

With `Cc1ccc(-n2c(-c3nn(C)c(C)c3Cl)n[nH]c2=S)cc1`, the IC50 entry was “inactive”.

For the compound `Cc1cccc(-n2c(C)n[nH]c2=S)c1C`, the IC50 is > 59.6 µM (inactive).

As for `CC(C)(C)c1ccc(COc2ccsc2C(=O)O)cc1`, the IC50 entry is “inactive”.

`S=c1[nH]nc(Cn2c(-c3ccccn3)nc3ccccc32)n1-c1ccc2c(c1)OCCO2`: the IC50 entry is “inactive”.

In the case of `Cc1ccc(S(=O)(=O)n2[nH]c(=O)cc2NC(=O)c2cccs2)cc1`, the concentration for half-maximal inhibition (IC50) was 0.453 µM.

As to `C=C(C)Cn1c(-c2cccs2)n[nH]c1=S`, the IC50 was 5.07 µM.

As for `O=C(CSc1nnc(NC(=O)c2ccccc2[N+](=O)[O-])s1)NCc1ccco1`, the IC50 was 6.93 µM.

Regarding `CSc1nc(SCC(=O)O)c2c3c(sc2n1)COC(C)(C)C3`, the IC50 result was “inactive”.

For the compound `Cc1cc(=O)oc2c3c(cc(OCC(=O)N[C@@H](Cc4ccccc4)C(=O)O)c12)OC(C)(C)CC3`, the IC50 entry is “inactive”.

As to `S=c1[nH]nc(-c2ccco2)n1-c1cccc2ccccc12`, the IC50 entry was “inactive”.

Turning to `Cc1ccc(-c2n[nH]c(=S)n2-c2ccccc2)cc1`, the IC50 is > 59.6 µM (inactive).

Consider `CSC[C@H](NC(=O)COc1cc2c(c3oc(=O)c(C)c(C)c13)CCC(C)(C)O2)C(=O)O`, for which the IC50 entry is “inactive”.

Regarding `CCCc1cc(=O)oc2c3c(cc(OCC(=O)N[C@@H](C)C(=O)O)c12)OC(C)(C)CC3`, the IC50 entry is “inactive”.
